Test results taken from patent US8334291B2, “Aliphatically substituted pyrazolopyridines, and the use thereof” (Bayer Intellectual Property GmbH, priority 2008, dated 2012).

Tested on: rabbit aorta rings contracted with phenylephrine
Experiment: Vasorelaxant effect in vitro
Set-up: species or system Rabbits
Details: Oryctolagus cuniculus; concentration reducing height of phenylephrine-induced contraction of rabbit aorta rings by 50%; 0.1% DMSO
Description: Rabbits are stunned by a blow to the neck and exsanguinated. The aorta is removed, freed from adhering tissue and divided into rings of a width of 1.5 mm. The rings are placed individually under an initial tension in 5 ml organ baths with Krebs-Henseleit solution which is at 37° C., is gassed with carbogen and has the following composition (in each case mM): NaCl: 119; KCl: 4.8; CaCl2×2H2O: 1; MgSO4×7H2O: 1.4; KH2PO4: 1.2; NaHCO3: 25; glucose: 10. The force of contraction is detected with Statham UC2 cells, amplified and digitized via A/D converters (DAS-1802 HC, Keithley Instruments, Munich) and recorded in parallel on chart recorders. Contractions are induced by cumulatively adding increasing concentrations of phenylephrine to the bath. After several control cycles, the substance to be investigated is added in each further run in increasing dosage in each case, and the height of the contraction achieved is compared with the height of the contraction reached in the last preceding one. The concentration necessary to reduce the height of the control value by 50% is calculated from this (IC50 value). The standard application volume is 5 μl, the proportion of DMSO in the bath solution corresponds to 0.1%.

Structure (SMILES)	IC50 [µM]
COC(=O)Nc1c(N)nc(-c2nn(CC3CCCCC3)c3ncccc23)nc1N [Example 1, Methyl[4,6-diamino-2-(1-cyclohexylmethyl-1H-pyrazolo[3,4-b]pyridin-3-yl)pyrimidin-5-yl]carbamate]	0.87
Nc1nc(-c2nn(CC3CCCCCC3)c3ncccc23)ncc1-c1ccncc1 [Example 5, 2-[1-(Cycloheptylmethyl)-1H-pyrazolo[3,4-b]pyridin-3-yl]-5-(pyridin-4-yl)pyrimidine-4-amine]	1
